The values below come from patent US8211945B2, “Carba-sugar amine derivative and glycolipid metabolic disorder treating agent containing the same as active ingredient” (Seikagaku Corporation, priority 2001, dated 2012).

Where a chain is given by its changes, count along the chain named. Values joined by “and” are separate entries in the source; they are usually repeats but may differ in a detail not shown here. Equal values may be shown once.

In data set [1] the target is T1, human normal β-galactosidase (GP8) (Homo sapiens, UniProt P16278).
T1 sequence (P16278 29-677): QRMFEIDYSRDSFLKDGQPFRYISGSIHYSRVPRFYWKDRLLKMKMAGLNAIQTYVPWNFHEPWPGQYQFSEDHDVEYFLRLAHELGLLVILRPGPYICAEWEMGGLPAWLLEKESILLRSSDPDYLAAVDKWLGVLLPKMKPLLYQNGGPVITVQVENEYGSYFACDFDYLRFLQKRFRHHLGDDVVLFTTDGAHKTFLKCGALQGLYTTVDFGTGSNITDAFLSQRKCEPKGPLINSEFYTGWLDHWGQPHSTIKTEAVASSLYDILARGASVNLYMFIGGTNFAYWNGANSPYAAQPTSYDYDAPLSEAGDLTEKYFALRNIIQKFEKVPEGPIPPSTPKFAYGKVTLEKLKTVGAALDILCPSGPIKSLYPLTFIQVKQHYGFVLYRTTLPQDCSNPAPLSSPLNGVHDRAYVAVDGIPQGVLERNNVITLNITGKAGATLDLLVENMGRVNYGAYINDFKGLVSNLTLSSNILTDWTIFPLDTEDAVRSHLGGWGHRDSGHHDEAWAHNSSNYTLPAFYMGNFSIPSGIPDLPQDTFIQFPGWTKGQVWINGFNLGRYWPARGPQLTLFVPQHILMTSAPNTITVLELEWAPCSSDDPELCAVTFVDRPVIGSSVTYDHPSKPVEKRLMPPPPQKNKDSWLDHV
The data set is described as follows: β-Galactosidase activity in model cells (knockout mouse fibroblasts with transferred gene) cultured 4 days with substance. Format: cell-based. Also on record: made in house; host or cells: SV40-immortalized β-galactosidase knockout mouse skin fibroblasts. From the text:
Cultured skin fibroblasts of a β-galactosidase-deficient knockout mouse was immortalized by introducing an SV40 viral gene, and enzyme genes integrated into pSV2neo and an expression vector were also introduced simultaneously, thereby establishing a model cell (Brain Dev., 23(5), 284-287, 2001). The genes used are human normal (GP8) and mutant β-galactosidase gene Y316C, G123R (infantile GM1-gangliosidosis), R201C (juvenile GM1-gangliosidosis), 151T, T82M, R201H, R263S, R457Q (adult GM1-gangliosidosis), W273L, Y83H, R482H and R482C (Morquio-B disease) (Hum. Genet., 93(2), 109-114, 1994).
As a control substance, 0.5 mM N-(n-butyl)-deoxygalactonojirimycin (NB-DGJ: The Journal of Biological Chemistry, 269, 27108-27114 (1994)) was used, and the substance 18 of the present invention was used in an amount of 0.2 μM.
Specifically, after culturing the model cell for 4 days using a cell culture medium (10% FCS DMEM) containing the substance 18 of the present invention, the resulting cells were recovered and diluted such that the amount of protein in the suspension became a predetermined level, and then enzyme activity in the diluted suspension was measured. Using 4-methylumbelliferyl-β-D-galactopyranoside as the fluorescent substrate, the enzyme activity during 30 minutes was measured at 37° C.

Data set [2] deals with T2, human mutant β-galactosidase R201C (Homo sapiens, UniProt P16278, R201C).
T2 construct: from tissue
T2 sequence (P16278 29-677 R201C): T1 sequence (P16278 29-677) with R173C
The data set is described as follows: Tissue migration and recovery of β-galactosidase activity, 1 week oral administration to recombinant mice. Format: in vivo. The note with it: for β-galactosidase activity, Test group: mice, 1 mM in drinking water, 1 week.

A short description of data set [3]: Safety observation during 1 week oral administration test in mice. As to conditions: about 1.4 mg per day orally. The procedure: That is, tap water containing 1 mM (about 0.28 mg/ml) of the substance 18 of the present invention was continuously administered for 1 week as drinking water to recombinant mice (3 month-old) prepared by transferring a human mutant β-galactosidase gene R201C into β-galactosidase deficient knockout mice. One week thereafter, the mice were sacrificed to excise the cerebrum, the cerebellum, the heart, the lungs, the liver, the spleen, the kidney, a muscle (femoral muscle) and plasma. Also, tail tissues were used for the purpose of verifying changes in the β-galactosidase activity in the same individual before and after the administration. Each organ was crushed under ice-cooling using a homogenizer, and then the suspension of crushed cells was centrifuged at 8,000×g for 30 minutes. Thereafter, the supernatant fraction was recovered and used as an enzyme solution. The amount of protein in this enzyme solution was measured by the Bradford method, and the β-galactosidase activity was measured. With regard to the measurement of β-galactosidase activity, the enzyme activity during 30 minutes was measured at 37° C. using 4-methylumbelliferyl-β-D-galactopyranoside as the fluorogenic substrate. […] Three animals were used in each group to calculate the mean value.

As to `CCCCN1C[C@H](O)[C@@H](O)[C@@H](O)[C@H]1CO` [Control, N-(n-butyl)-deoxygalactonojirimycin, reference compound], the “enzyme activity, Control” value in data set [1] (transferred gene GP8, control substance 0.5 mM NB-DGJ) was found to be 74.94.

For the compound `CCCCCCCCN[C@@H]1C=C(CO)[C@H](O)C(O)[C@@H]1O` (stereo partly drawn) [Substance 18, N-octyl-5a-carba-α-L-arabino-hexo-5(5a)-enopyranosylamine], the “β-galactosidase activity, Test group” value in data set [2] (Cerebellum) is on record as 55.4 nmol/mg protein/30 minutes; in data set [2] (Cerebrum), 50.5 nmol/mg protein/30 minutes; in data set [2] (Heart), 241.2 nmol/mg protein/30 minutes; in data set [2] (Kidney), 171.1 nmol/mg protein/30 minutes; in data set [2] (Liver) it was 186.8 nmol/mg protein/30 minutes; in data set [2] (Lungs), 98.9 nmol/mg protein/30 minutes. The “β-galactosidase activity, Test group” value was 91.4 nmol/mg protein/30 minutes in data set [2] (Muscle (femoral muscle)), 23.0 nmol/mg protein/30 minutes in data set [2] (Plasma) and 266.2 nmol/mg protein/30 minutes in data set [2] (Spleen). The Improving degree in data set [2] (Cerebellum, test group vs control) came out at 5.3 Times; in data set [2] (Cerebrum, test group vs control), 6.0 Times; in data set [2] (Heart, test group vs control), 14.2 Times; in data set [2] (Kidney, test group vs control), 6.2 Times; in data set [2] (Liver, test group vs control), 4.7 Times; in data set [2] (Lungs, test group vs control) it was 12.4 Times. The Improving degree in data set [2] (Muscle (femoral muscle), test group vs control) was 11.3 Times; in data set [2] (Plasma, test group vs control), 7.9 Times; in data set [2] (Spleen, test group vs control) it was 17.1 Times; in data set [2] (Tail (administered group), after vs before feeding, same individual) it was ~8 Times and 6.7 Times. Further, the “β-galactosidase activity, After feeding” value in data set [2] (Tail (administered group), after 1 week feeding) was 518.8 nmol/mg protein/30 minutes. The “β-galactosidase activity improved in average in the test group” value in data set [2] (average of organs, test group vs control) is 9.1 times. Also, the “level of the activity obtained in the cerebrum and the cerebellum” value in data set [2] (cerebrum and cerebellum, test group) is reported as “about 50 nmol/mg protein/30 minutes”. For the same compound, in data set [3], the health condition result is recorded as “health condition was markedly good”. The “Relative ratio (×100%)” value in data set [1] (GP8, substance 18 vs control) is listed as 1.05 ×100%. The enzyme activity in data set [1] (transferred gene GP8, 0.2 μM, 4 days) was 78.87.
